Test [1] concerns the target Serine/threonine-protein kinase 33 (Homo sapiens, UniProt Q9BYT3). Briefly: Selectivity interaction (Enzymatic assay) EUB0000608a STK33.
Test [2] addresses T1, Cyclin-G-associated kinase (Homo sapiens, UniProt O14976). The experiment in a line: Selectivity interaction (Enzymatic assay) EUB0000608a GAK.
The target in test [3] is Serine/threonine-protein kinase PLK1 (Homo sapiens, UniProt P53350). The experiment in a line: Selectivity interaction (Enzymatic assay) EUB0000608a PLK1.
Test [4] concerns the target Serine/threonine-protein kinase PLK3 (Homo sapiens, UniProt Q9H4B4). The experiment in a line: Selectivity interaction (Enzymatic assay) EUB0000608a PLK3.
Test [5] has as its target Serine/threonine-protein kinase PLK4 (Homo sapiens, UniProt O00444). Briefly: Selectivity interaction (Enzymatic assay) EUB0000608a PLK4.
In test [6] the target is Serine/threonine-protein kinase RIO3 (Homo sapiens) (UniProt O14730). The experiment in a line: Selectivity interaction (Ambit kinase binding assay panel) EUB0000609a RIOK3. Conditions: at 10 µM.
Test [7] concerns the target T2, Dual specificity protein kinase CLK1 (Homo sapiens, UniProt P49759). Briefly: Selectivity interaction (Ambit kinase binding assay panel) EUB0000609a CLK1. Conditions: at 10 µM.
For test [8], the target named is T2, Dual specificity protein kinase CLK1. The experiment in a line: Selectivity interaction (Enzymatic assay) EUB0000609a CLK1.
The target in test [9] is T3, Mitogen-activated protein kinase 1 (Homo sapiens, UniProt P28482). Briefly: Selectivity interaction (Ambit kinase binding assay panel) EUB0000609a MAPK1. Conditions: at 10 µM.
Test [10] deals with T3, Mitogen-activated protein kinase 1. Briefly: Selectivity interaction (Enzymatic assay) EUB0000609a MAPK1.
The target of test [11] is Mitogen-activated protein kinase 8 (Homo sapiens, UniProt P45983). The experiment in a line: Selectivity interaction (Ambit kinase binding assay panel) EUB0000609a MAPK8. Conditions: at 10 µM.
The target of test [12] is T4, Cyclin-G-associated kinase (Homo sapiens) (UniProt O14976).
T4 sequence (whole entry): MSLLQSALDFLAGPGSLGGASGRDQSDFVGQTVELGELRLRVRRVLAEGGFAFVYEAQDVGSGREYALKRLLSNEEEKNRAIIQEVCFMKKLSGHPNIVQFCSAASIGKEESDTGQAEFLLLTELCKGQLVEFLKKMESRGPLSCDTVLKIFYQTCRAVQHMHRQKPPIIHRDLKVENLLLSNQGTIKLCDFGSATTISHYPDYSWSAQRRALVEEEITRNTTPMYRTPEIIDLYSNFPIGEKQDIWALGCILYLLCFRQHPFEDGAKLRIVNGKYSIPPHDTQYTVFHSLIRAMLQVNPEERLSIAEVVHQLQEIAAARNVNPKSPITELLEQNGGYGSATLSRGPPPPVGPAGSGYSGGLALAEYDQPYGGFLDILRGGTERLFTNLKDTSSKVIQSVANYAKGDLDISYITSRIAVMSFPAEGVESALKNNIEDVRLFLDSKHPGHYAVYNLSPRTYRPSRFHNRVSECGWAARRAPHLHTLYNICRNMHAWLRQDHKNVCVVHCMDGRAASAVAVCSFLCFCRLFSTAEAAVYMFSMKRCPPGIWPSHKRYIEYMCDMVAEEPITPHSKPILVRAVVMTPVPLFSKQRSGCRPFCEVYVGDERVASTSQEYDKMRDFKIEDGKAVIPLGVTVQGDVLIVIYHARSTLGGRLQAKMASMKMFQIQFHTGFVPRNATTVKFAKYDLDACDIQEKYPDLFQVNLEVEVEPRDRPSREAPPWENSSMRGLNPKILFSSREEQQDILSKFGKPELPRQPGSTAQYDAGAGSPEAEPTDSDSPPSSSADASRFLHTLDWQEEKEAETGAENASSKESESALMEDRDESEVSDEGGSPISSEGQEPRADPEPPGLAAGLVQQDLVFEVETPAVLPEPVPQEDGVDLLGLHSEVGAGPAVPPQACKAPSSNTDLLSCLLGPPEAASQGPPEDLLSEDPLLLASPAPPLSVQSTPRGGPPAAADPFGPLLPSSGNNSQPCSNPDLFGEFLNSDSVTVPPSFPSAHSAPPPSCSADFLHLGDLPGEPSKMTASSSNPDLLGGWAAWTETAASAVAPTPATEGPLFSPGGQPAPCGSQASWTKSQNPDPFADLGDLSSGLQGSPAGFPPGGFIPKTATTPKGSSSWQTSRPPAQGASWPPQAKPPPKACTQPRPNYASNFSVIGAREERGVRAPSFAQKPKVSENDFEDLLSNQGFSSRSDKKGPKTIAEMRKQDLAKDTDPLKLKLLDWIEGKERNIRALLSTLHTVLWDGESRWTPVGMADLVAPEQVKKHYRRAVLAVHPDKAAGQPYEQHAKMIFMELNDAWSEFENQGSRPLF
Briefly: Selectivity interaction (Ambit kinase binding assay panel) EUB0000609a GAK. Conditions: at 10 µM.

The target in test [13] is T1, Cyclin-G-associated kinase. The experiment in a line: Selectivity interaction (Enzymatic assay) EUB0000609a GAK.
Test [14] has as its target Dual specificity mitogen-activated protein kinase kinase 4 (Homo sapiens) (UniProt P45985). Briefly: Selectivity interaction (Ambit kinase binding assay panel) EUB0000609a MAP2K4. Conditions: at 10 µM.
The next test addresses Activated CDC42 kinase 1 (Homo sapiens, UniProt Q07912). Briefly: Selectivity interaction (Enzymatic assay) EUB0000609a TNK2.
The target in test [15] is Non-receptor tyrosine-protein kinase TNK1 (Homo sapiens, UniProt Q13470). Briefly: Selectivity interaction (Enzymatic assay) EUB0000609a TNK1.
Test [16] has as its target T5, ALK tyrosine kinase receptor (Homo sapiens, UniProt Q9UM73). Briefly: Selectivity interaction (Ambit kinase binding assay panel) EUB0000609a ALK. Conditions: at 10 µM.
For test [17], the target named is T5, ALK tyrosine kinase receptor. Briefly: Selectivity interaction (Enzymatic assay) EUB0000609a ALK.
Test [18] has as its target T6, Leukocyte tyrosine kinase receptor (Homo sapiens, UniProt P29376). The experiment in a line: Selectivity interaction (Ambit kinase binding assay panel) EUB0000609a LTK. Conditions: at 10 µM.
Test [19] has as its target T6, Leukocyte tyrosine kinase receptor. The experiment in a line: Selectivity interaction (Enzymatic assay) EUB0000609a LTK.
Another test addresses Focal adhesion kinase 1 (Homo sapiens, UniProt Q05397). The experiment in a line: Selectivity interaction (Enzymatic assay) EUB0000609a PTK2.
Test [20] concerns the target T7, Protein-tyrosine kinase 2-beta (Homo sapiens, UniProt Q14289). The experiment in a line: Selectivity interaction (Ambit kinase binding assay panel) EUB0000609a PTK2B. Conditions: at 10 µM.
For test [21], the target named is T7, Protein-tyrosine kinase 2-beta. The experiment in a line: Selectivity interaction (Enzymatic assay) EUB0000609a PTK2B.
Test [22] deals with T8, Insulin-like growth factor 1 receptor (Homo sapiens, UniProt P08069). The experiment in a line: Selectivity interaction (Ambit kinase binding assay panel) EUB0000609a IGF1R. Conditions: at 10 µM.
In test [23] the target is T8, Insulin-like growth factor 1 receptor. Briefly: Selectivity interaction (Enzymatic assay) EUB0000609a IGF1R.
Test [24] addresses T9, Insulin receptor (Homo sapiens, UniProt P06213). The experiment in a line: Selectivity interaction (Ambit kinase binding assay panel) EUB0000609a INSR. Conditions: at 10 µM.
Test [25] concerns the target T9, Insulin receptor. Briefly: Selectivity interaction (Enzymatic assay) EUB0000609a INSR.
Test [26] deals with T10, Insulin receptor-related protein (Homo sapiens, UniProt P14616). The experiment in a line: Selectivity interaction (Ambit kinase binding assay panel) EUB0000609a INSRR. Conditions: at 10 µM.
Test [27] deals with T10, Insulin receptor-related protein. The experiment in a line: Selectivity interaction (Enzymatic assay) EUB0000609a INSRR.
Test [28] deals with Serine/threonine-protein kinase N2 (Homo sapiens) (UniProt Q16513). The experiment in a line: Selectivity interaction (Ambit kinase binding assay panel) EUB0000609a PKN2. Conditions: at 10 µM.
Test [29] concerns the target Synaptic vesicular amine transporter (Homo sapiens, UniProt Q05940). The experiment in a line: Selectivity interaction (Enzyme and Receptor panel (MSD Pharma/Taiwan)) EUB0000750a SLC18A2.
In test [30] the target is Inhibitor of nuclear factor kappa-B kinase subunit epsilon (Homo sapiens) (UniProt Q14164). The experiment in a line: Selectivity interaction (KinomeScan (DiscoverX)) EUB0000750a IKBKE. Conditions: at 1 µM.
For test [31], the target named is Epidermal growth factor receptor (Homo sapiens, UniProt P00533). The experiment in a line: Selectivity interaction (KinomeScan (DiscoverX)) EUB0000750a EGFR. Conditions: at 1 µM.
In test [32] the target is RAC-alpha serine/threonine-protein kinase (Homo sapiens, UniProt P31749). Briefly: Selectivity interaction (KinomeScan (DiscoverX)) EUB0000750a AKT1. Conditions: at 1 µM.
For test [33], the target named is Phosphatidylinositol 4,5-bisphosphate 3-kinase catalytic subunit alpha isoform (Homo sapiens, UniProt P42336). The experiment in a line: Selectivity interaction (KinomeScan (DiscoverX)) EUB0000750a PIK3CA. Conditions: at 1 µM.
The target in test [34] is Citron Rho-interacting kinase (Homo sapiens) (UniProt O14578). The experiment in a line: Selectivity interaction (KinomeScan (DiscoverX)) EUB0000750a CIT. Conditions: at 1 µM.
Test [35] deals with T11, Serine/threonine-protein kinase LATS2 (Homo sapiens) (UniProt Q9NRM7).
T11 sequence (whole entry): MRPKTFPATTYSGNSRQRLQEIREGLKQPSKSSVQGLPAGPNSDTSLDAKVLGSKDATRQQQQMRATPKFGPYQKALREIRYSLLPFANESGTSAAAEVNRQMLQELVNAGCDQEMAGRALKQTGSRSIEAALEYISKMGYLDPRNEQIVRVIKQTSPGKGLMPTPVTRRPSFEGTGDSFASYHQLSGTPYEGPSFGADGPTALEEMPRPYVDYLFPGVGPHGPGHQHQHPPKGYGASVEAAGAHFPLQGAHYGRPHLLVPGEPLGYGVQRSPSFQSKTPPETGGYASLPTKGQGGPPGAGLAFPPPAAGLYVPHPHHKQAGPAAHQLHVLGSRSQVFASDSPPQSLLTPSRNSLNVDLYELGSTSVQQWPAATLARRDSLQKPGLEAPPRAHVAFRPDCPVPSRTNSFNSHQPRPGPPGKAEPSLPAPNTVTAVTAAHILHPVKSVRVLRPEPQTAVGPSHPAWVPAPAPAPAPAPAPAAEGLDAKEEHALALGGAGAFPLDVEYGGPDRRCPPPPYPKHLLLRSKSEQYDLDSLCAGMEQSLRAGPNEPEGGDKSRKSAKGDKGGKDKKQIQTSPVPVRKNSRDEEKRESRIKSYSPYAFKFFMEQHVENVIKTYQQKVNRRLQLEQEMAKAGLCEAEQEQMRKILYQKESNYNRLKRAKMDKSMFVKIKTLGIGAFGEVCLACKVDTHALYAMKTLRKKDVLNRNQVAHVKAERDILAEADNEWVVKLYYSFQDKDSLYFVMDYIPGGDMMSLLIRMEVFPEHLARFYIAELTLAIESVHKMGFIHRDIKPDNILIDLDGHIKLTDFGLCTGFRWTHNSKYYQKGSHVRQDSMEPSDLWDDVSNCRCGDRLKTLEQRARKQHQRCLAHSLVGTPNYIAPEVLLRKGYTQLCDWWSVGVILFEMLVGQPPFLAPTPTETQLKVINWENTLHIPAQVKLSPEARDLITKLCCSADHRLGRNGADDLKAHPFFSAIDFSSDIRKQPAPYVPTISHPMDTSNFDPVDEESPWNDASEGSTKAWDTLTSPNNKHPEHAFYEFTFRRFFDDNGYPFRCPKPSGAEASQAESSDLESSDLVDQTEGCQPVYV
Briefly: Selectivity interaction (KinomeScan (DiscoverX)) EUB0000750a LATS2. Conditions: at 1 µM.

T10 sequence (P14616 27-742 limits assumed): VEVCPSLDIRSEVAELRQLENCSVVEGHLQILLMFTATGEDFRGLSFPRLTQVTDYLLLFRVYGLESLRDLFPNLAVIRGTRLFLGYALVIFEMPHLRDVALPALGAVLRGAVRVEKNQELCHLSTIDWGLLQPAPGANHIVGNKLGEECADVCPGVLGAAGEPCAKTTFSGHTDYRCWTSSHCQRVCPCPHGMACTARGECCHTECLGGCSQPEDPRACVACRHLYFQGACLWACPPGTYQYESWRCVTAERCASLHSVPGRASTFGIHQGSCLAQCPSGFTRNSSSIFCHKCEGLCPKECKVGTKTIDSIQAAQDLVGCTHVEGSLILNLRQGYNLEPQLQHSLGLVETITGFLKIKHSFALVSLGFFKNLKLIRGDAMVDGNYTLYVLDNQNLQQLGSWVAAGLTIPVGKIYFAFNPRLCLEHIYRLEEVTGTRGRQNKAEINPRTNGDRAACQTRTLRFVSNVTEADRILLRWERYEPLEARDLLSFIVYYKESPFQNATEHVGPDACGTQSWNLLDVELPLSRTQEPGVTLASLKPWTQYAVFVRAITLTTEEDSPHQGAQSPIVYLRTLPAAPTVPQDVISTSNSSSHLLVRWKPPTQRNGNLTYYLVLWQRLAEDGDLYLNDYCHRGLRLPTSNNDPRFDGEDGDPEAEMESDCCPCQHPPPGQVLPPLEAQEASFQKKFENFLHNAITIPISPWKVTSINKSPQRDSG
T10 sequence (P14616 747-1297 limits assumed): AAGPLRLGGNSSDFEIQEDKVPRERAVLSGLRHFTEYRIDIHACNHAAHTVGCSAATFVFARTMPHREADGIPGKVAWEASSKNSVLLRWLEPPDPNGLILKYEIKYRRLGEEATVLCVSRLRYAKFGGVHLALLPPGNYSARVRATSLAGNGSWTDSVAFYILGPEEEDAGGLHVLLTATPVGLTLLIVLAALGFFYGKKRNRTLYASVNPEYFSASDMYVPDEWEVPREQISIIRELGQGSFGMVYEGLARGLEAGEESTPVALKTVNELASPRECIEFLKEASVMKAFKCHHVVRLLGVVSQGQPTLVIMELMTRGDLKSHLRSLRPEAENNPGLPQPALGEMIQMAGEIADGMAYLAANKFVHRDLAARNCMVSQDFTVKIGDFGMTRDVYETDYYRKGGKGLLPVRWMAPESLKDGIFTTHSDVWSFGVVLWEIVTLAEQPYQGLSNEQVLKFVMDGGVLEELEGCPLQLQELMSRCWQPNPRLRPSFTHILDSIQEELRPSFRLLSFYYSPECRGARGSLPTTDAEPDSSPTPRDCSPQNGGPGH
T6 sequence (P29376 whole entry): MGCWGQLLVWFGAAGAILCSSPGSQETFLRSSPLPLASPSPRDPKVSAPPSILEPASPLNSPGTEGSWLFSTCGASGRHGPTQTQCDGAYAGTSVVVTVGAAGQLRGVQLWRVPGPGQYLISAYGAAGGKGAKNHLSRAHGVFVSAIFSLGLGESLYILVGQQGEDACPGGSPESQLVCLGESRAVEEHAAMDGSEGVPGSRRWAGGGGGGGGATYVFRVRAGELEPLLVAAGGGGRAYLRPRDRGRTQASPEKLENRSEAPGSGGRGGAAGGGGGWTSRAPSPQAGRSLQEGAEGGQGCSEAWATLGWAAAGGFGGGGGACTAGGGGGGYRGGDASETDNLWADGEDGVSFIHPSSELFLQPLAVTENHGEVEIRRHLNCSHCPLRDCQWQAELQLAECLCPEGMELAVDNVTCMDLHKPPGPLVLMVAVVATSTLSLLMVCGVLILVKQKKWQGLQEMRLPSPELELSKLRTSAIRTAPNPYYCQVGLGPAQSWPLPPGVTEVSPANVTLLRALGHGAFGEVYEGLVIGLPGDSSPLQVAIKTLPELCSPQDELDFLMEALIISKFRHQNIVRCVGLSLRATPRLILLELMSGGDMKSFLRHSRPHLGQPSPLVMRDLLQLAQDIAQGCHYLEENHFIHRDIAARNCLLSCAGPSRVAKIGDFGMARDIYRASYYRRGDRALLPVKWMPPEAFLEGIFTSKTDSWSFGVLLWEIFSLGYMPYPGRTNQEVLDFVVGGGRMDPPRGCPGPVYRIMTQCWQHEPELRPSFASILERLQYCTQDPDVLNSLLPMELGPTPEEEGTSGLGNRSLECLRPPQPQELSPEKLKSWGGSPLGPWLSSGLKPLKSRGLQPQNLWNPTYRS
T9 sequence (P06213 28-758 limits assumed): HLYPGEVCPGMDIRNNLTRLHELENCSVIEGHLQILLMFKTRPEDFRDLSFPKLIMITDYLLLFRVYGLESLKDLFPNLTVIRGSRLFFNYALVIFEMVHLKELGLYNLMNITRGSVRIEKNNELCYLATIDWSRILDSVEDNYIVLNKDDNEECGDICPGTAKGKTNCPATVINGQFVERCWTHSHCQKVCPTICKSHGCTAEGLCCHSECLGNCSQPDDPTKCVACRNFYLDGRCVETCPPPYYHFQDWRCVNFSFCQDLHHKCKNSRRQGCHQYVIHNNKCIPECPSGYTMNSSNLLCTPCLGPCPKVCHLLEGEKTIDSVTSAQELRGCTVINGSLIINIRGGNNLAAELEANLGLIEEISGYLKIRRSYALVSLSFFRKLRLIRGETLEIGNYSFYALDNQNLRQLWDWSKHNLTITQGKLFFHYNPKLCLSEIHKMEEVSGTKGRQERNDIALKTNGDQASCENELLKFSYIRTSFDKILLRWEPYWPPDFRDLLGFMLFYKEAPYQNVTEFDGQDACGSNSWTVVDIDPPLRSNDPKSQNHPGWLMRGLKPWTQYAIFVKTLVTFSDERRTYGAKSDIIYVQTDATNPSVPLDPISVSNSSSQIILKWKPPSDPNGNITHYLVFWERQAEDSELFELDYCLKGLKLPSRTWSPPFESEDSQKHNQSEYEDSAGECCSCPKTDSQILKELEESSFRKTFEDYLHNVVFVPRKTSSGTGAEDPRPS
T9 sequence (P06213 763-1382 limits assumed): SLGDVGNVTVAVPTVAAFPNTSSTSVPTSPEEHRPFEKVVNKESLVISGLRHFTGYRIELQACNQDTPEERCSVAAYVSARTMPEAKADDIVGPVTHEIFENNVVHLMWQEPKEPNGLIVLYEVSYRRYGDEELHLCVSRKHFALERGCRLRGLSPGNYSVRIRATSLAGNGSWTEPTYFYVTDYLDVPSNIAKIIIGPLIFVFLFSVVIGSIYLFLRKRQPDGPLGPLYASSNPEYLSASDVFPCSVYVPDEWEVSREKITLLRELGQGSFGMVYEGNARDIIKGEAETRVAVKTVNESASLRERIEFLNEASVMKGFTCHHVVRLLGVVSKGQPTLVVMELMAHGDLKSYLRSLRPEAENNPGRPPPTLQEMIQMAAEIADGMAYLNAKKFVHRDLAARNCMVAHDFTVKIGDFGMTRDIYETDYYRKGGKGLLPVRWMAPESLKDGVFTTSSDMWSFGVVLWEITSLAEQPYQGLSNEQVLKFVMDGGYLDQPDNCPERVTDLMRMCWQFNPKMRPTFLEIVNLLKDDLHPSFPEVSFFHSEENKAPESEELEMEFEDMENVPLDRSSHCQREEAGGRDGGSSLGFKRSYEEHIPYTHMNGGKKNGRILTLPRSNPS
T3 sequence (P28482 whole entry): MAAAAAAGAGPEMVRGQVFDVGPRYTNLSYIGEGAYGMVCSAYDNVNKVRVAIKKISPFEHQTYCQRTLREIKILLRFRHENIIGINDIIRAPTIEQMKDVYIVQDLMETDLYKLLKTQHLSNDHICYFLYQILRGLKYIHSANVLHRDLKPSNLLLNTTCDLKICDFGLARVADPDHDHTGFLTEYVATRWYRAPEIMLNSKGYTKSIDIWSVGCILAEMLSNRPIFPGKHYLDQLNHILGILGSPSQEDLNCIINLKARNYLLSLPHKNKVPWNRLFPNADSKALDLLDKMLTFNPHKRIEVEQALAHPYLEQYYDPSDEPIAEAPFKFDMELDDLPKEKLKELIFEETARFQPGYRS
Focal adhesion kinase 1, sequence (Q05397 whole entry): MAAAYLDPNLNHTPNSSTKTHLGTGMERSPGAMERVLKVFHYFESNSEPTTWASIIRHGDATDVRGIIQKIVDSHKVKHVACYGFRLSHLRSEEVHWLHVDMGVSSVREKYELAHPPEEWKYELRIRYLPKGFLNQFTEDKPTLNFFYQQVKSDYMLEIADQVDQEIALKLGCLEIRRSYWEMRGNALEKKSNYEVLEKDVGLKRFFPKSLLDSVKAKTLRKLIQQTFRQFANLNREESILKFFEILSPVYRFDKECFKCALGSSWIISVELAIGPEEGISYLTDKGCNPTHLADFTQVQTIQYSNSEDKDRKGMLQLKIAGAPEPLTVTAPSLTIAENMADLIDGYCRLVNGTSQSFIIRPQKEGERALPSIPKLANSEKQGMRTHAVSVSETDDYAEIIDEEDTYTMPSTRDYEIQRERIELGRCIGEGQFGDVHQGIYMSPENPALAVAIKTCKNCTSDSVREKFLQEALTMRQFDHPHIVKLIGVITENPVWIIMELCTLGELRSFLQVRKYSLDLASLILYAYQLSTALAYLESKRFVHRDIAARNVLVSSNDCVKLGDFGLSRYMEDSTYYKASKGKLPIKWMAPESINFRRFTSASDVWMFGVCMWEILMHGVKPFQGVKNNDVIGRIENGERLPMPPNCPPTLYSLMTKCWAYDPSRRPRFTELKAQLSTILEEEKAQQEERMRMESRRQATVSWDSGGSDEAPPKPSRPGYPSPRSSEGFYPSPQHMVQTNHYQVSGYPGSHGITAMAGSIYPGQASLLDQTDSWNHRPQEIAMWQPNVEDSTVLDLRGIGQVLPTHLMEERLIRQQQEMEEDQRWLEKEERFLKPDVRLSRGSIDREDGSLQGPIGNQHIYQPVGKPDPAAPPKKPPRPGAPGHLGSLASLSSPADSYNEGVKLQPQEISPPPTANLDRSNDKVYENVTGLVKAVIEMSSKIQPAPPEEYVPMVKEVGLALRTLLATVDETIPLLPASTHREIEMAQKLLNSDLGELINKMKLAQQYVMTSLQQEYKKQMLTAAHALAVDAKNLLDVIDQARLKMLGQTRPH

With `CCOc1cc(N2CCC(O)CC2)ccc1Nc1ncc2c(n1)N(C1CCCC1)CCC(=O)N2C`, the IC50 was found to be 5000 nM in [1]; 140 nM in test [2]; 61 nM in [3]; 1600 nM in [4]; 3100 nM in [5].

Consider `COc1cc(N2CCC(O)CC2)ccc1Nc1cc(Nc2ccccc2S(=O)(=O)C(C)C)c2cc[nH]c2n1`, for which the % of control in test [6] was determined as 0.5%; in test [7], 7.3%; in [9], 6%; in [11], 5.2%; in test [12] it was 5.4%; in test [14], 6.2%. The % of control in test [16] worked out at 8.9%; in test [18], 1.2%; in [20], 0.5%; in test [22] it was 0.9%; on Insulin receptor [24] it was 0.15%; in test [26] it was 2%. Further, the % of control in test [28] turned out to be 0.1%. For the same compound, the IC50 was 1900 nM in [8]; 2900 nM in [10]; 1100 nM in test [13]; 3100 nM against Activated CDC42 kinase 1; 2600 nM in [15]; 21 nM in [17]. Besides, the IC50 is 29 nM in [19]; 440 nM on Focal adhesion kinase 1; 280 nM in test [21]; 750 nM in [23]; 470 nM on Insulin receptor [25]; 1200 nM in test [27].

The compound `O=S(=O)(NC1CCC(c2cc(F)ccc2F)(S(=O)(=O)c2ccc(Cl)cc2)CC1)C(F)(F)F` (configuration not stated) [MRK-560] had an IC50 in [29] of 213 nM. In addition, the % of control in test [30] was 0%; in test [31], 0%; in test [32], 5%; in test [33], 36%; in [34], 0%; in test [35], 0%.

In general, IC50 refers to the midpoint of a concentration-inhibition curve.

The values above are taken from ChEMBL document CHEMBL5212743, “Selectivity Literature for EUbOPEN Chemogenomics Library wave 3” (2023).
